Laboratory results published in patent US11911361B2, “Stable cannabinoid formulations” (priority 2014, dated 2024).

Legend:
[1] = Pharmacokinetic food-effect study, single 20 mg/kg dose, healthy subjects (Example 17); settings: for AUC / AUC(0-t) / AUC(0-inf) / Cmax / Tmax: human, in vivo, po, 20 mg/kg; for AUC: AUC0, cannabidiol; for Tmax: median (min, max)
Method: (§1) An open label, randomized, single-dose, two-period, two-way crossover food-effect study was conducted on healthy subjects. […] Twenty-four (24) subjects were enrolled in the study and each were subjected to the fasted and fed treatment arms in separate periods followed by a 7-day wash-out period. For pharmacokinetic analysis, nominal time and default lambda-z selections were used. All below quantifiable limit values were set to zero and all subjects were included in the analysis.
(§2) Data from 13 subjects from the fasted treatment and 24 subject from the fed treatment were included in the pharmacokinetic and statistical analyses.

[2] = system: Metrazol-induced clonic seizure; test: Subcutaneous Metrazol (sc Met) seizure test; settings: for Sc MET N/F (animals protected/tested): mice; for ED50: Mus musculus, sc
U87 cells = test: Orthotopic mouse model of glioblastoma multiforme, U87 cells
[3] = system: maximal electroshock-induced seizures; test: Maximal electroshock test (MES), rats; settings: Anticonvulsant Screening
[4] = system: minimal muscular or neurological impairment; test: Minimal motor impairment toxicity test (TOX), rats; assay type: in vivo; settings: Anticonvulsant Screening
clinical = settings: human, in vivo, po, 20 mg/kg, single 20 mg/kg oral dose of cannabidiol solution, mean; for CL/F / Vd/F: cannabidiol; for half-life: t1/2, cannabidiol
Method: as §1, §2

[5] = cannabidiol, single 20 mg/kg oral dose of cannabidiol solution, fasted, mean
[6] = cannabidiol, single 20 mg/kg oral dose of cannabidiol solution, fed, mean
[7] = dose 30, 1.0 h, ethanol:polyethoxylated castor oil:PBS
[8] = dose 30, 1.0 h, methylcellulose
[9] = dose 30, 2.0 h, ethanol:polyethoxylated castor oil:PBS
[10] = dose 30, 2.0 h, methylcellulose
[11] = dose 30, 4.0 h, ethanol:polyethoxylated castor oil:PBS
[12] = dose 30, 4.0 h, methylcellulose
[13] = dose 100, 1.0 h, ethanol:polyethoxylated castor oil:PBS
[14] = dose 100, 1.0 h, methylcellulose
[15] = dose 100, 2.0 h, ethanol:polyethoxylated castor oil:PBS
[16] = dose 100, 2.0 h, methylcellulose
[17] = dose 100, 4.0 h, ethanol:polyethoxylated castor oil:PBS
[18] = dose 100, 4.0 h, methylcellulose

C=C(C)[C@@H]1CCC(C)=C[C@H]1c1c(O)cc(CCCCC)cc1O [cannabidiol, (−)-trans-2-p-mentha-1,8-dien-3-yl-5-pentylresorcinol]
AUCextrap [1, 5]: 3.57%
Clast [1, 5]: 0.867 ng/mL
Tlast [1, 5]: 120.01 h
λz [1, 5]: 0.0257 h⁻¹
AUCextrap [1, 6]: 3.84%
Clast [1, 6]: 6.36 ng/mL
Tlast [1, 6]: 120.00 h
λz [1, 6]: 0.0165 h⁻¹
AUC ([1]; single 20 mg/kg oral, fasted, mean ± SD): 0.325 ± 1.17 ng·h/mL
AUC ([1]; single 20 mg/kg oral, fed, mean ± SD): 0.229 ± 0.636 ng·h/mL
AUC(0-t) ([1]; AUC0-0.25, cannabidiol, single 20 mg/kg oral, fasted, mean ± SD): 0.363 ± 1.31 ng·h/mL
AUC(0-t) ([1]; AUC0-0.25, cannabidiol, single 20 mg/kg oral, fed, mean ± SD): 0.498 ± 0.874 ng·h/mL
AUC(0-t) ([1]; AUC0-0.5, cannabidiol, single 20 mg/kg oral, fasted, mean ± SD): 0.584 ± 1.33 ng·h/mL
AUC(0-t) ([1]; AUC0-0.5, cannabidiol, single 20 mg/kg oral, fed, mean ± SD): 2.45 ± 3.38 ng·h/mL
AUC(0-t) ([1]; AUC0-0.75, cannabidiol, single 20 mg/kg oral, fasted, mean ± SD): 1.25 ± 1.34 ng·h/mL
AUC(0-t) ([1]; AUC0-0.75, cannabidiol, single 20 mg/kg oral, fed, mean ± SD): 7.48 ± 11.2 ng·h/mL
AUC(0-t) ([1]; AUC0-1, cannabidiol, single 20 mg/kg oral, fasted, mean ± SD): 1.93 ± 1.62 ng·h/mL
AUC(0-t) ([1]; AUC0-1, cannabidiol, single 20 mg/kg oral, fed, mean ± SD): 21.8 ± 40 ng·h/mL
AUC(0-t) ([1]; AUC0-1.5, cannabidiol, single 20 mg/kg oral, fasted, mean ± SD): 2.79 ± 2.14 ng·h/mL
AUC(0-t) ([1]; AUC0-1.5, cannabidiol, single 20 mg/kg oral, fed, mean ± SD): 128 ± 215 ng·h/mL
AUC(0-t) ([1]; AUC0-2, cannabidiol, single 20 mg/kg oral, fasted, mean ± SD): 4.14 ± 2.75 ng·h/mL
AUC(0-t) ([1]; AUC0-2, cannabidiol, single 20 mg/kg oral, fed, mean ± SD): 269 ± 381 ng·h/mL
AUC(0-t) ([1]; AUC0-2.5, cannabidiol, single 20 mg/kg oral, fasted, mean ± SD): 5.38 ± 4.09 ng·h/mL
AUC(0-t) ([1]; AUC0-2.5, cannabidiol, single 20 mg/kg oral, fed, mean ± SD): 424 ± 547 ng·h/mL
AUC(0-t) ([1]; AUC0-3, cannabidiol, single 20 mg/kg oral, fasted, mean ± SD): 5.88 ± 3.99 ng·h/mL
AUC(0-t) ([1]; AUC0-3, cannabidiol, single 20 mg/kg oral, fed, mean ± SD): 535 ± 675 ng·h/mL
AUC(0-t) ([1]; AUC0-4, cannabidiol, single 20 mg/kg oral, fasted, mean ± SD): 6.62 ± 3.85 ng·h/mL
AUC(0-t) ([1]; AUC0-4, cannabidiol, single 20 mg/kg oral, fed, mean ± SD): 812 ± 874 ng·h/mL
AUC(0-t) ([1]; AUC0-6, cannabidiol, single 20 mg/kg oral, fasted, mean ± SD): 12 ± 9.29 ng·h/mL
AUC(0-t) ([1]; AUC0-6, cannabidiol, single 20 mg/kg oral, fed, mean ± SD): 1090 ± 886 ng·h/mL
AUC(0-t) ([1]; AUC0-8, cannabidiol, single 20 mg/kg oral, fasted, mean ± SD): 22.9 ± 39.3 ng·h/mL
AUC(0-t) ([1]; AUC0-8, cannabidiol, single 20 mg/kg oral, fed, mean ± SD): 819 ± 590 ng·h/mL
AUC(0-t) ([1]; AUC0-12, cannabidiol, single 20 mg/kg oral, fasted, mean ± SD): 14.7 ± 10.2 ng·h/mL
AUC(0-t) ([1]; AUC0-12, cannabidiol, single 20 mg/kg oral, fed, mean ± SD): 372 ± 338 ng·h/mL
AUC(0-t) ([1]; AUC0-16, cannabidiol, single 20 mg/kg oral, fasted, mean ± SD): 9.76 ± 4.79 ng·h/mL
AUC(0-t) ([1]; AUC0-16, cannabidiol, single 20 mg/kg oral, fed, mean ± SD): 112 ± 133 ng·h/mL
AUC(0-t) ([1]; AUC0-24, cannabidiol, single 20 mg/kg oral, fasted, mean ± SD): 5.45 ± 2.76 ng·h/mL
AUC(0-t) ([1]; AUC0-24, cannabidiol, single 20 mg/kg oral, fed, mean ± SD): 34.3 ± 11.7 ng·h/mL
AUC(0-t) ([1]; AUC0-36, cannabidiol, single 20 mg/kg oral, fasted, mean ± SD): 5 ± 3.78 ng·h/mL
AUC(0-t) ([1]; AUC0-36, cannabidiol, single 20 mg/kg oral, fed, mean ± SD): 20.7 ± 5.11 ng·h/mL
AUC(0-t) ([1]; AUC0-48, cannabidiol, single 20 mg/kg oral, fasted, mean ± SD): 2.66 ± 2.4 ng·h/mL
AUC(0-t) ([1]; AUC0-48, cannabidiol, single 20 mg/kg oral, fed, mean ± SD): 15.5 ± 4.31 ng·h/mL
AUC(0-t) ([1]; AUC0-72, cannabidiol, single 20 mg/kg oral, fasted, mean ± SD): 1.73 ± 1.89 ng·h/mL
AUC(0-t) ([1]; AUC0-72, cannabidiol, single 20 mg/kg oral, fed, mean ± SD): 10.1 ± 3.42 ng·h/mL
AUC(0-t) ([1]; AUC0-96, cannabidiol, single 20 mg/kg oral, fasted, mean ± SD): 1.35 ± 1.73 ng·h/mL
AUC(0-t) ([1]; AUC0-96, cannabidiol, single 20 mg/kg oral, fed, mean ± SD): 7.86 ± 2.44 ng·h/mL
AUC(0-t) ([1]; AUC0-120, cannabidiol, single 20 mg/kg oral, fasted, mean ± SD): 0.867 ± 1.34 ng·h/mL
AUC(0-t) ([1]; AUC0-120, cannabidiol, single 20 mg/kg oral, fed, mean ± SD): 6.36 ± 2.24 ng·h/mL
AUC(0-inf) ([1]; AUC0-inf, cannabidiol, single 20 mg/kg oral dose of cannabidiol solution, fasted, mean): 360 ng·h/mL
AUC(0-inf) ([1]; AUC0-inf, cannabidiol, single 20 mg/kg oral dose of cannabidiol solution, fed, mean): 10100 ng·h/mL
AUC(0-t) ([1]; AUC0-t, cannabidiol, single 20 mg/kg oral dose of cannabidiol solution, fasted, mean): 466 ng·h/mL
AUC(0-t) ([1]; AUC0-t, cannabidiol, single 20 mg/kg oral dose of cannabidiol solution, fed, mean): 9650 ng·h/mL
Cmax ([1]; Cmax, cannabidiol, single 20 mg/kg oral dose of cannabidiol solution, fasted, mean): 27.3 ng/mL
Cmax ([1]; Cmax, cannabidiol, single 20 mg/kg oral dose of cannabidiol solution, fed, mean): 1560 ng/mL
Tmax ([1]; cannabidiol, single 20 mg/kg oral dose of cannabidiol solution, fasted): 12 h
Tmax ([1]; cannabidiol, single 20 mg/kg oral dose of cannabidiol solution, fed): 6 h
AUC(0-inf) ([1]; ln(AUC0-inf) Geometric Mean, cannabidiol, 20 mg/kg oral, Fasted, least squares geometric mean, period removed from model): 326 ng·h/mL
AUC(0-inf) ([1]; ln(AUC0-inf) Geometric Mean, cannabidiol, 20 mg/kg oral, Fed, least squares geometric mean, period removed from model): 9580 ng·h/mL
AUC(0-t) ([1]; ln(AUC0-t) Geometric Mean, cannabidiol, 20 mg/kg oral, Fasted, least squares geometric mean): 669 ng·h/mL
AUC(0-t) ([1]; ln(AUC0-t) Geometric Mean, cannabidiol, 20 mg/kg oral, Fed, least squares geometric mean): 9210 ng·h/mL
Cmax ([1]; ln(Cmax) Geometric Mean, cannabidiol, 20 mg/kg oral, Fasted, least squares geometric mean): 44.5 ng/mL
Cmax ([1]; ln(Cmax) Geometric Mean, cannabidiol, 20 mg/kg oral, Fed, least squares geometric mean): 1390 ng/mL
Sc MET N/F (animals protected/tested) ([2]; ED50 Biological Response (Table 57), 150 mg/kg, 2 h, methylcellulose): 1/8
Sc MET N/F (animals protected/tested) ([2]; ED50 Biological Response (Table 57), 300 mg/kg, 2 h, methylcellulose): 5/8
Sc MET N/F (animals protected/tested) ([2]; ED50 Biological Response (Table 57), 360 mg/kg, 2 h, methylcellulose): 7/8
Sc MET N/F (animals protected/tested) ([2]; ED50 Biological Response (Table 59), 120 mg/kg, 2 h, ethanol:polyethoxylated castor oil:PBS): 0/8
Sc MET N/F (animals protected/tested) ([2]; ED50 Biological Response (Table 59), 160 mg/kg, 2 h, ethanol:polyethoxylated castor oil:PBS): 2/8
Sc MET N/F (animals protected/tested) ([2]; ED50 Biological Response (Table 59), 220 mg/kg, 2 h, ethanol:polyethoxylated castor oil:PBS): 5/8
Sc MET N/F (animals protected/tested) ([2]; ED50 Biological Response (Table 59), 260 mg/kg, 2 h, ethanol:polyethoxylated castor oil:PBS): 7/8
ED50 ([2]; 1:1:18 ethanol:polyethoxlated castor oil:PBS solvent): 199 mg/kg
ED50 ([2]; methylcellulose solvent): 241 mg/kg
Sc MET N/F (animals protected/tested) ([2]; Tables 57/58, 200 mg/kg, 2 h, methylcellulose): 3/8
Sc MET N/F (animals protected/tested) ([2]; Time to Peak Effect (Table 58), 200 mg/kg, 0.25 h, methylcellulose): 0/4
Sc MET N/F (animals protected/tested) ([2]; Time to Peak Effect (Table 58), 200 mg/kg, 0.5 h, methylcellulose): 0/4
Sc MET N/F (animals protected/tested) ([2]; Time to Peak Effect (Table 58), 200 mg/kg, 1 h, methylcellulose): 2/8
glioblastoma multiforme progression (in words) (U87 cells; 15 mg/kg alone, intraperitoneal): did not inhibit glioblastoma multiforme progression
effect on antitumor activity of temozolomide (in words) (U87 cells; 15 mg/kg with temozolomide 2 mg/kg, intraperitoneal): enhanced the antitumor activity of suboptimal doses of temozolomide leading to a significant increase in survival
full regression of tumors (U87 cells; mouse, in vivo): 20%
MES N/F (animals protected/tested) [3, 7]: 0/4
MES N/F (animals protected/tested) [3, 8]: 0/4
MES N/F (animals protected/tested) [3, 9]: 0/4
MES N/F (animals protected/tested) [3, 10]: 0/4
MES N/F (animals protected/tested) [3, 11]: 0/4
MES N/F (animals protected/tested) [3, 12]: 0/4
MES N/F (animals protected/tested) [3, 13]: 1/4
MES N/F (animals protected/tested) [3, 14]: 0/4
MES N/F (animals protected/tested) [3, 15]: 0/4
MES N/F (animals protected/tested) [3, 16]: 0/4
MES N/F (animals protected/tested) [3, 17]: 0/4
MES N/F (animals protected/tested) [3, 18]: 0/4
TOX N/F (minimal motor impairment) [4, 7]: 0/4
TOX N/F (minimal motor impairment) [4, 8]: 0/4
TOX N/F (minimal motor impairment) [4, 9]: 0/4
TOX N/F (minimal motor impairment) [4, 10]: 0/4
TOX N/F (minimal motor impairment) [4, 11]: 0/4
TOX N/F (minimal motor impairment) [4, 12]: 0/4
TOX N/F (minimal motor impairment) [4, 13]: 0/4
TOX N/F (minimal motor impairment) [4, 14]: 0/4
TOX N/F (minimal motor impairment) [4, 15]: 0/4
TOX N/F (minimal motor impairment) [4, 16]: 0/4
TOX N/F (minimal motor impairment) [4, 17]: 0/4
TOX N/F (minimal motor impairment) [4, 18]: 0/4
CL/F (clinical; fasted): 1140 mL/min/kg
CL/F (clinical; fed): 36.2 mL/min/kg
Vd/F (clinical; fasted): 2680 L/kg
Vd/F (clinical; fed): 133 L/kg
half-life (clinical; fasted): 1670 min
half-life (clinical; fed): 2540 min
